Data: US20260138978A1, “POSITIVE ALLOSTERIC MODULATORS OF THE MUSCARINIC ACETYLCHOLINE RECEPTOR M1” (Vanderbilt University, priority 2022, published 2026)

Tests used:
human mAChRM1 [1] = target: T1, human mAChRM1 (Homo sapiens, UniProt P11229); test: mAChR M1 cell-based functional assay (calcium mobilization), positive allosteric modulator activity: increase in the EC20 acetylcholine response; details: for Emax: PAM mode; for EC50: increase in the EC20 acetylcholine response, read-out: PAM Activity Human M1 EC50
T1 construct: host or cells: CHO-K1
T1 sequence (P11229 1-460): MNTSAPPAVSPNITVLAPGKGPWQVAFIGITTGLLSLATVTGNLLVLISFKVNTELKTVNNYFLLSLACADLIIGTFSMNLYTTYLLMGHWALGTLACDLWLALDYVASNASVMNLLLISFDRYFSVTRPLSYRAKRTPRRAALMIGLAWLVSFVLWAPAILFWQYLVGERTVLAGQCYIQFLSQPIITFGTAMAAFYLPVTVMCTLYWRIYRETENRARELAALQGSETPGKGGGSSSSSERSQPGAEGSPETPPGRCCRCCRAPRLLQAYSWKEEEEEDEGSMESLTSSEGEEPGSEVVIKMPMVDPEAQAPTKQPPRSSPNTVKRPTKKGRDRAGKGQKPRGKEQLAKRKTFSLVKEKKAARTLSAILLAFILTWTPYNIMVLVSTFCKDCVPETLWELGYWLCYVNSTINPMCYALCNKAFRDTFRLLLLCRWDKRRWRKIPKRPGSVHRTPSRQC
In short: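 CHO-K1 cells stably expressing human M1, loaded with Fluo-4 AM; calcium flux recorded on FDSS at 1 Hz over 300 s following compound addition. PAM activity is the concentration-dependent increase of an EC20 acetylcholine response; EC50 and Emax from four-parameter logistic fits of 11-point, 1:3 concentration series.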

human mAChRM1 [2] = target: T1, human mAChRM1; test: mAChR M1 cell-based functional assay (calcium mobilization), agonist activity upon compound addition, Emax relative to acetylcholine maximum; details: for Agonist Activity Human M1 EC50 / EC50: calcium mobilization upon compound addition; for Emax: relative to the maximum for acetylcholine
In short: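 CHO-K1 cells stably expressing human M1 were loaded with Fluo-4 AM for 50 min at 37 °C. Compound was added 4 s into a 300 s FDSS read at 1 Hz, over 11-point 1:3 dilution curves. Agonism was taken as a concentration-dependent rise in calcium fluorescence ratio, with Emax expressed relative to the acetylcholine maximum from four-parameter logistic fits.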

| Compound | Emax (human mAChRM1 [1]) [%] | EC50 (human mAChRM1 [1]) [nM] | Agonist Activity Human M1 EC50 (human mAChRM1 [2]) | EC50 (human mAChRM1 [2]) [µM] | Emax (human mAChRM1 [2]) [%] |
| --- | --- | --- | --- | --- | --- |
| Cn1cc2c(-c3cc(F)c(CN4Cc5ncccc5C4=O)c(F)c3)ccc(C3(O)CNC3)c2n1 [Compound 114, 6-(2,6-Difluoro-4-(7-(3-hydroxyazetidin-3-yl)-2-methyl-2H-indazol-4-yl)benzyl)-6,7-dihydro-5H-pyrrolo[3,4-b]pyridin-5-one] | 56 | ≥ 10000 | inactive | – | – |
| Cn1cc2c(-c3cc(F)c(CN4Cc5ncccc5C4=O)c(F)c3)ccc(C3(O)CC(F)(F)C3)c2n1 [Compound 105, 6-(4-(7-(3,3-difluoro-1-hydroxycyclobutyl)-2-methyl-2H-indazol-4-yl)-2,6-difluorobenzyl)-6,7-dihydro-5H-pyrrolo[3,4-b]pyridin-5-one] | 72 | 780 | – | > 10 | 15 |
| CC(C)(O)c1ccc(-c2ccc(CN3Cc4ncccc4C3=O)cc2)cc1 [Compound 11, 6-((4′-(2-hydroxypropan-2-yl)-[1,1′-biphenyl]-4-yl)methyl)-6,7-dihydro-5H-pyrrolo[3,4-b]pyridin-5-one] | 65 | 6400 | inactive | – | – |
| Cn1cc2cc(-c3ccc(CN4Cc5cccc(F)c5C4=O)c(F)c3)cc(C(C)(C)O)c2n1 [Compound 166, 7-fluoro-2-(2-fluoro-4-(7-(2-hydroxypropan-2-yl)-2-methyl-2H-indazol-5-yl)benzyl)isoindolin-1-one] | 76 | 744 | inactive | – | – |
| CC(C)(O)c1ccc(-c2cc(F)c(CN3Cc4ncccc4C3=O)c(F)c2)cc1 [Compound 5, 6-((3,5-difluoro-4′-(2-hydroxypropan-2-yl)-[1,1′-biphenyl]-4-yl)methyl)-6,7-dihydro-5H-pyrrolo[3,4-b]pyridin-5-one] | 79 | 1460 | inactive | – | – |
| CC(C)(O)c1ccc(-c2cc(F)c(CN3Cc4ncccc4C3=O)c(F)c2)c2cccnc12 [Compound 38, 6-(2,6-difluoro-4-(8-(2-hydroxypropan-2-yl)quinolin-5-yl)benzyl)-6,7-dihydro-5H-pyrrolo[3,4-b]pyridin-5-one] | 59 | 4310 | inactive | – | – |
| CC(C)(O)c1ccc(-c2cc(F)c(CN3Cc4ncccc4C3=O)c(C(F)(F)F)c2)cc1 [Compound 44, 6-((3-fluoro-4′-(2-hydroxypropan-2-yl)-5-(trifluoromethyl)-[1,1′-biphenyl]-4-yl)methyl)-6,7-dihydro-5H-pyrrolo[3,4-b]pyridin-5-one] | 61 | 5680 | inactive | – | – |
| Cc1cc(-c2ccc(C(C)(C)O)c3ccccc23)cc(F)c1CN1Cc2ncccc2C1=O [Compound 72, 6-(2-fluoro-4-(4-(2-hydroxypropan-2-yl)naphthalen-1-yl)-6-methylbenzyl)-6,7-dihydro-5H-pyrrolo[3,4-b]pyridin-5-one] | 60 | 6960 | inactive | – | – |
| Cc1cc(-c2cc(C(C)(C)O)c3nn(C)cc3c2)cc(F)c1CN1Cc2cccc(F)c2C1=O [Compound 168, 7-fluoro-2-(2-fluoro-4-(7-(2-hydroxypropan-2-yl)-2-methyl-2H-indazol-5-yl)-6-methylbenzyl)isoindolin-1-one] | 79 | 998 | inactive | – | – |
| CC(C)(O)c1ccc(-c2ccc(CN3Cc4cccnc4C3=O)cc2)cc1 [Compound 128, 6-((4′-(2-hydroxypropan-2-yl)-[1,1′-biphenyl]-4-yl)methyl)-5,6-dihydro-7H-pyrrolo[3,4-b]pyridin-7-one] | 57 | 7140 | inactive | – | – |
| Cc1cc(-c2cc(C(C)(C)O)c3nn(C)cc3c2)ccc1CN1Cc2ncccc2C1=O [Compound 35, 6-(4-(7-(2-hydroxypropan-2-yl)-2-methyl-2H-indazol-5-yl)-2-methylbenzyl)-6,7-dihydro-5H-pyrrolo[3,4-b]pyridin-5-one] | 68 | 958 | inactive | – | – |

These reach a lower EC50 (human mAChRM1 [1]). Values come first.

| Emax (human mAChRM1 [1]) [%] | EC50 (human mAChRM1 [1]) [nM] | Agonist Activity Human M1 EC50 (human mAChRM1 [2]) | EC50 (human mAChRM1 [2]) [µM] | Emax (human mAChRM1 [2]) [%] | Compound |
| --- | --- | --- | --- | --- | --- |
| 87 | 65 | – | 8.35 | 33 | Cc1cc(-c2ccc(C(C)(C)O)c3nn(C)cc23)cc(F)c1CN1Cc2ncccc2C1=O [Compound 2, 6-(2-Fluoro-4-(7-(2-hydroxypropan-2-yl)-2-methyl-2H-indazol-4-yl)-6-methylbenzyl)-6,7-dihydro-5H-pyrrolo[3,4-b]pyridin-5-one] |
| 83 | 373 | inactive | – | – | Cn1cc2c(-c3cc(F)c(CN4Cc5ncccc5C4=O)c(F)c3)ccc(C(C)(O)C3CC3)c2n1 (stereo not drawn) [Compound 80, 6-(4-(7-(1-cyclopropyl-1-hydroxyethyl)-2-methyl-2H-indazol-4-yl)-2,6-difluorobenzyl)-6,7-dihydro-5H-pyrrolo[3,4-b]pyridin-5-one] |
| 80 | 296 | inactive | – | – | Cn1cc2c(-c3ccc(CN4Cc5cccc(F)c5C4=O)c(F)c3)ccc(C(C)(C)O)c2n1 [Compound 160, 7-fluoro-2-(2-fluoro-4-(7-(2-hydroxypropan-2-yl)-2-methyl-2H-indazol-4-yl)benzyl)isoindolin-1-one] |
| 87 | 119 | – | 4.02 | 31 | [2H]C1([2H])c2ncccc2C(=O)N1Cc1c(F)cc(-c2ccc(C(C)(C)O)c3nn(C)cc23)cc1F [Compound 142, 6-(2,6-Difluoro-4-(7-(2-hydroxypropan-2-yl)-2-methyl-2H-indazol-4-yl)benzyl)-6,7-dihydro-5H-pyrrolo[3,4-b]pyridin-5-one-7,7-d2] |
| 87 | 80 | – | 3.78 | 46 | Cn1cc2c(-c3cc(F)c(CN4Cc5ncncc5C4=O)c(F)c3)ccc(C(C)(C)O)c2n1 [Compound 139, 6-(2,6-difluoro-4-(7-(2-hydroxypropan-2-yl)-2-methyl-2H-indazol-4-yl)benzyl)-6,7-dihydro-5H-pyrrolo[3,4-d]pyrimidin-5-one] |
| 80 | 439 | inactive | – | – | Cn1cc2c(-c3cc(F)c(CN4Cc5ncccc5C4=O)c(C(F)(F)F)c3)ccc(C(C)(C)O)c2n1 [Compound 76, 6-(2-fluoro-4-(7-(2-hydroxypropan-2-yl)-2-methyl-2H-indazol-4-yl)-6-(trifluoromethyl)benzyl)-6,7-dihydro-5H-pyrrolo[3,4-b]pyridin-5-one] |
| 84 | 630 | inactive | – | – | Cn1cc2c(-c3cc(F)c(CN4Cc5ncccc5C4=O)c(F)c3)ccc(C3(O)CCC3)c2n1 [Compound 96, 6-(2,6-difluoro-4-(7-(1-hydroxycyclobutyl)-2-methyl-2H-indazol-4-yl)benzyl)-6,7-dihydro-5H-pyrrolo[3,4-b]pyridin-5-one] |
| 82 | 398 | – | ≥ 10 | 21 | Cn1cc2cc(-c3cc(F)c(CN4Cc5ncccc5C4=O)c(C4CC4)c3)cc(C(C)(C)O)c2n1 [Compound 88, 6-(2-cyclopropyl-6-fluoro-4-(7-(2-hydroxypropan-2-yl)-2-methyl-2H-indazol-5-yl)benzyl)-6,7-dihydro-5H-pyrrolo[3,4-b]pyridin-5-one] |
| 78 | 66 | – | 2.06 | 54 | [2H]C([2H])([2H])n1cc2c(-c3cc(F)c(CN4Cc5ncccc5C4=O)c(C4CC4)c3)ccc(C(C)(C)O)c2n1 (single isomer, unassigned) [Compound 16, 6-(2-cyclopropyl-6-fluoro-4-(7-(2-hydroxypropan-2-yl)-2-(methyl-d3)-2H-indazol-4-yl)benzyl)-6,7-dihydro-5H-pyrrolo[3,4-b]pyridin-5-one] |
| 76 | 84 | – | 5.64 | 41 | Cn1cc2c(-c3cc(F)c(CN4Cc5ccncc5C4=O)c(F)c3)ccc(C(C)(C)O)c2n1 [Compound 140, 2-(2,6-difluoro-4-(7-(2-hydroxypropan-2-yl)-2-methyl-2H-indazol-4-yl)benzyl)-1,2-dihydro-3H-pyrrolo[3,4-c]pyridin-3-one] |
| 72 | 472 | – | ≥ 10 | 8 | CC(C)(O)c1cc(-c2cc(F)c(CN3Cc4ncccc4C3=O)c(F)c2)cc2cccnc12 [Compound 39, 6-(2,6-difluoro-4-(8-(2-hydroxypropan-2-yl)quinolin-6-yl)benzyl)-6,7-dihydro-5H-pyrrolo[3,4-b]pyridin-5-one] |
| 86 | 648 | – | 9.68 | 21 | Cn1cc2c(-c3cc(F)c(CN4Cc5cccnc5C4=O)c(C4CCCC4)c3)ccc(C(C)(C)O)c2n1 [Compound 136, 6-(2-cyclopentyl-6-fluoro-4-(7-(2-hydroxypropan-2-yl)-2-methyl-2H-indazol-4-yl)benzyl)-5,6-dihydro-7H-pyrrolo[3,4-b]pyridin-7-one] |
